Source: patent US9688760B2, “Anti-leukocyte adhesion for the mitigation of potential adverse events caused by CD3-specific binding domains” (AMGEN RESEARCH (MUNICH) GMBH, priority 2013, dated 2017)

Tests used:
patients = test: Phase 1 clinical study: Blinatumomab with PPS co-medication; type: in vivo, human; details: for clinical response: with PPS co-medication
Method: In a phase 1 clinical study three patients were treated with Blinatumomab at an initial dose of 5 μg/m^2/day for 1 week followed by a dose escalation to 60 μg/m^2/day for additional 3 to 7 weeks.

[1] = tested on: ICAM-1 and P-selectin on HUVEC; test: Immunofluorescence staining of HUVEC after T cell-rolling; type: cell-based, human; details: T cells pre-incubated with 10 ng/ml Blinatumomab vs untouched T cells
Method: (§1) After rolling and adhesion of T cells on HBMEC or HUVEC under flow conditions, endothelial cells were fixed using 150 μl of 4% paraformaldehyde solution (#P-6148, Sigma-Aldrich) for 30 min at 4° C. μ-slides were rinsed with 150 μl of D-PBS and subjected to immunofluorescence staining. HBMEC were first blocked with 150 μl of avidin blocking reagent (#PHA-70871, reagent 1, Dianova) for 10 min at room temperature, washed with 150 μl of D-PBS followed by incubation with 150 μl of biotin blocking reagent (#PHA-70871, reagent 2, Dianova). All following staining procedures were performed in 150 μl of D-PBS with 5% FBS at room temperature in the dark, and washing steps were done in 150 μl of D-PBS. μ-slides were incubated with 5 μg/ml polyclonal rabbit anti-human VCAM-1 (#106777, abcam) for 1 h. After washing, 20 μg/ml goat anti-rabbit IgG-DyLight350 was added for 1 h followed by washing and incubation with 15 μg/ml mouse anti-human P-selectin IgG1 (#BBA30, R&D Systems) for 2 h. After washing, goat anti-mouse IgG-Alexa488 (1:100) (#A10680, Invitrogen) was added for 1 h. […] VCAM-1 staining was monitored with a CFL EPI-FL Filter Block UV-2A (#MBE41200, Nikon), P-selectin staining with a CFL EPI-FL Filter Block GFP-B (#MBE44740, Nikon), and ICAM-1 staining with an EPI-FL Filter Block Cy3 (#MXU96213, Nikon). […]

[2] = tested on: ICAM-1, P-selectin and VCAM-1 on HBMEC; test: Immunofluorescence staining of HBMEC after T cell-rolling; type: cell-based, human
Method: as §1

[3] = three patients with PPS co-medication

Blinatumomab: recombinant CD19×CD3 bispecific scFv antibody consisting of four immunoglobulin variable domains assembled into a single polypeptide chain
clinical response (patients; Patient 109-036, Follicular Lymphoma grade I/II, after 57 days of civ infusion): complete response (CR)
clinical response (patients; Patient 109-040, Lymphoplasmocytic Lymphoma, after 30 days of civ infusion): stable disease (SD)
clinical response (patients; Patient 109-042, Follicular Lymphoma grade I/II, after 56 days of civ infusion): complete response (CR)
T cell-counts in peripheral blood 45 minutes after start of infusion or stepwise dose increase (patients; patients receiving Blinatumomab without co-medication with PPS): rapid decline of T cell-counts
clinical response after 4 weeks of treatment (patients; [3]): one patient had a stable disease
clinical response after 8 weeks of treatment (patients; [3]): Two out of the three patients achieved a complete response
surface expression of adhesion molecules on HUVEC [1]: increased surface expression of adhesion molecules ICAM-1 and P-selectin
surface expression of adhesion molecules on HBMEC ([2]; after T cell-rolling with Blinatumomab-stimulated T cells, 120 min): increased surface expression of adhesion molecules ICAM-1, P-selectin and VCAM-1
cell surface expression of P-selectin on HBMEC ([2]; histamine-stimulated HBMEC, Blinatumomab added, no PPS): increased
